Laboratory results as given in ChEMBL document CHEMBL3352523, “Synthesis and biological evaluation of podophyllotoxin congeners as tubulin polymerization inhibitors” (Bioorg Med Chem, 2014).
The source made the active and inactive calls. No cut-off for these calls is given here.

Key:
[1] = (§1) Antiproliferative activity against human MIAPaCa2 cells assessed as growth inhibition after 48 hrs by SRB assay; type: functional; conditions: MIA PaCa-2, 48 h
[2] = tested on: HeLa; assay: Antiproliferative activity against human HeLa cells assessed as growth inhibition after 48 hrs by SRB assay; type: functional
[3] = tested on: MCF7; assay: Antiproliferative activity against human MCF7 cells assessed as growth inhibition after 48 hrs by SRB assay; type: functional; conditions: MCF7, 48 h
[4] = tested on: HeLa; assay: Antimitotic activity against human HeLa cells assessed as accumulation at G2/M phase at 5 uM after 24 hrs by PI staining based flow cytometry (reference value: 18.35%); type: functional
[5] = tested on: HeLa; assay: Induction of microtubule depolymerization in human HeLa cells at 5 uM after 24 hrs by DAPI staining; type: cell-based
[6] = target: Tubulin (Bos taurus, UniProt Q6B856+Q862L2+Q862F3); assay: Inhibition of bovine brain tubulin polymerization by fluorescence analysis
[7] = tested on: HeLa; assay: Induction of microtubule destabilization in human HeLa cells at 5 uM after 24 hrs by immunoblot analysis; type: cell-based
[8] = tested on: MIA PaCa-2; assay: as §1; type: functional

Molecule `COC(=O)Nc1nc2cc(C(=O)c3cccs3)ccc2[nH]1` [NOCODAZOLE] has a GI50 [1] of 950 nM, a GI50 [2] of 810 nM and a GI50 [3] of 940 nM.

For `COc1cc([C@@H]2c3cc4c(cc3[C@@H](O[C@@H]3O[C@@H]5CO[C@@H](C)O[C@H]5[C@H](O)[C@H]3O)[C@H]3COC(=O)[C@H]23)OCO4)cc(OC)c1O` [ETOPOSIDE], the GI50 [1] was 1100 nM, the GI50 [2] was 620 nM and the GI50 [3] was 250 nM.

Molecule `COC(=O)[C@H]1C(C=O)=Cc2cc3c(cc2[C@H]1c1cc(OC)c(OC)c(OC)c1)OCO3` has a GI50 [1] of 730 nM, a GI50 [2] of 690 nM and a GI50 [3] of 910 nM.

`COC(=O)[C@H]1C(c2nc3ccc(C)cc3[nH]2)=Cc2cc3c(cc2[C@H]1c1cc(OC)c(OC)c(OC)c1)OCO3` gave a GI50 [1] of 18100 nM, a GI50 [2] of 2800 nM and a GI50 [3] of 3070 nM.

For `COC(=O)[C@H]1C(c2nc3cc4ccccc4cc3[nH]2)=Cc2cc3c(cc2[C@H]1c1cc(OC)c(OC)c(OC)c1)OCO3`, the GI50 [1] was 2560 nM, the GI50 [2] was 3800 nM and the GI50 [3] was 1200 nM.

In the case of `COC(=O)[C@H]1C(c2nc3cc(C)c(C)cc3[nH]2)=Cc2cc3c(cc2[C@H]1c1cc(OC)c(OC)c(OC)c1)OCO3`, the GI50 [1] was 1500 nM, the GI50 [2] was 3600 nM and the GI50 [3] was 160 nM.

Work on `COC(=O)[C@H]1C(c2nc3ccc(Cl)cc3[nH]2)=Cc2cc3c(cc2[C@H]1c1cc(OC)c(OC)c(OC)c1)OCO3` yielded a GI50 [1] of 1300 nM, a GI50 [2] of 2160 nM and a GI50 [3] of 2090 nM.

`COC(=O)[C@H]1C(c2nc3cc(C(F)(F)F)cc(Br)c3[nH]2)=Cc2cc3c(cc2[C@H]1c1cc(OC)c(OC)c(OC)c1)OCO3` gave a GI50 [1] of 3100 nM, a GI50 [2] of 6400 nM and a GI50 [3] of 2100 nM.

With `COC(=O)[C@H]1C(c2nc3ccc(OC)cc3[nH]2)=Cc2cc3c(cc2[C@H]1c1cc(OC)c(OC)c(OC)c1)OCO3` the GI50 [1] was 1600 nM, the Activity [4] was 68.91% and the Activity [5] was “Active”. The IC50 [6] was 910 nM, the GI50 [2] was 1040 nM and the Activity [7] was “Active”. For the same molecule, the GI50 [3] was 2100 nM.

In the case of `COc1cc([C@@H]2c3cc4c(cc3[C@H](O)[C@H]3COC(=O)[C@H]23)OCO4)cc(OC)c1OC` [PODOFILOX], the GI50 [1] was 510 nM, the GI50 [2] was 740 nM and the GI50 [3] was 310 nM.

With `COC(=O)[C@H]1C(c2nc3ccc(C(F)(F)F)cc3[nH]2)=Cc2cc3c(cc2[C@H]1c1cc(OC)c(OC)c(OC)c1)OCO3` the GI50 [8] was “inactive”, the GI50 [2] was 5080 nM and the GI50 [3] was 4800 nM.

In the case of `COC(=O)[C@H]1C(c2nc3ccc(Br)cc3[nH]2)=Cc2cc3c(cc2[C@H]1c1cc(OC)c(OC)c(OC)c1)OCO3`, the GI50 [1] was under 10 nM, the Activity [4] was 73.96% and the Activity [5] was “Active”. The IC50 [6] was 860 nM, the GI50 [2] was 210 nM and the Activity [7] was “Active”. The GI50 [3] was 540 nM.

With `COC(=O)[C@H]1C(c2nc3ccc(F)cc3[nH]2)=Cc2cc3c(cc2[C@H]1c1cc(OC)c(OC)c(OC)c1)OCO3` the GI50 [1] was 3900 nM, the GI50 [2] was 4300 nM and the GI50 [3] was 20 nM.

`COC(=O)[C@H]1C(c2nc3ccccc3[nH]2)=Cc2cc3c(cc2[C@H]1c1cc(OC)c(OC)c(OC)c1)OCO3` showed a GI50 [1] of 1200 nM, an Activity [4] of 56.05% and an IC50 [6] of 1290 nM. It also gave a GI50 [2] of 200 nM and a GI50 [3] of 200 nM.

`COC(=O)[C@H]1C(c2nc3cc(Cl)c(Cl)cc3[nH]2)=Cc2cc3c(cc2[C@H]1c1cc(OC)c(OC)c(OC)c1)OCO3` gave a GI50 [1] of 3200 nM, a GI50 [2] of 19700 nM and a GI50 [3] of 580 nM.

For `COC(=O)[C@H]1C(c2nc3ccc(F)c(Cl)c3[nH]2)=Cc2cc3c(cc2[C@H]1c1cc(OC)c(OC)c(OC)c1)OCO3`, the GI50 [8] was “inactive”, the GI50 [2] was 24200 nM and the GI50 [3] was 2300 nM.
